Test results taken from patent US8008292B2, “Condensed benzamide compounds and inhibitors of vanilloid receptor subtype 1 (VR1) activity” (Japan Tobacco Inc., priority 2004, dated 2011).

Biological target: T1, human VR1 (Homo sapiens, UniProt Q8NER1)
T1 construct: expressed in transfected cells
Assay: Inhibition of Ca2+ entry in cells caused by proton, in rat glioma (C6BU1) cells stably expressing human VR1 (Fura 2 fluorescence)
Format: cell-based
Conditions: inhibition of proton-induced Ca2+ entry
How it was run: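 Fura 2-loaded C6BU1 cells in 20 mM MES buffer pH 6.8 with added Ca2+ were preincubated 10 min with compound (final 1 μM to 0.1 nM, 1% DMSO). Proton stimulation brought pH to 5.5. Fluorescence rise was measured, and IC50 was derived from % inhibition versus DMSO control.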

T1 sequence (Q8NER1 whole entry): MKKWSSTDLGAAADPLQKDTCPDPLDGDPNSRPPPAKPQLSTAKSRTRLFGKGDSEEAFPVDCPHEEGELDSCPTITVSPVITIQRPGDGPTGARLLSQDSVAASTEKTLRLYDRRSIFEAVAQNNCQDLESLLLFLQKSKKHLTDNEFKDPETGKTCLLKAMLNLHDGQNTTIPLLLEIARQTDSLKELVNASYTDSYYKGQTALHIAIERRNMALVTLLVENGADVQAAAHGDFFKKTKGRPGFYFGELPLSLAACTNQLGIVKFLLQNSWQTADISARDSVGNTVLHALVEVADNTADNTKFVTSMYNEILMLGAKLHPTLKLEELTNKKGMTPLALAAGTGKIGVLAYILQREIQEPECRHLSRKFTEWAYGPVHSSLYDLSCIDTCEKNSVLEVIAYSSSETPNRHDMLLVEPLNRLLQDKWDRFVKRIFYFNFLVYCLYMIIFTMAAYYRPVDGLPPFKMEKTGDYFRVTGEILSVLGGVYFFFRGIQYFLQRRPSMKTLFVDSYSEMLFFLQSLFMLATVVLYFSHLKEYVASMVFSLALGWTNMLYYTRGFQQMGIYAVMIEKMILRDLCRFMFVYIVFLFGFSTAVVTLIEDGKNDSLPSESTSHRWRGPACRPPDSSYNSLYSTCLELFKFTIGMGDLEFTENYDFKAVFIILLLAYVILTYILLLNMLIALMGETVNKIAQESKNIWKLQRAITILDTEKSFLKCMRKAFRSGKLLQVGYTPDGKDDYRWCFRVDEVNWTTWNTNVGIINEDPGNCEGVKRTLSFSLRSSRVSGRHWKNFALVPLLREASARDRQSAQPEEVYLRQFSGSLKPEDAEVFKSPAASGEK

Cc1cnc(N2c3cccc(C(=O)Nc4ccc(C(F)(F)F)cc4)c3OC[C@@H]2CO)o1 [Example 6-12, (S)-3-hydroxymethyl-4-(5-methyloxazol-2-yl)-N-(4-trifluoromethylphenyl)-3,4-dihydro-2H-benzo[1,4]oxazine-8-carboxamide]
IC50: < 100 nM

Cc1nc(N2c3cccc(C(=O)Nc4ccc(OC(F)(F)F)cc4)c3OC[C@@H]2CO)sc1C [Example 6-13, (S)-4-(4,5-dimethylthiazol-2-yl)-3-hydroxymethyl-N-(4-trifluoromethoxyphenyl)-3,4-dihydro-2H-benzo[1,4]oxazine-8-carboxamide]
IC50: < 100 nM

Cc1nc(N2c3cccc(C(=O)Nc4ccc(C(F)(F)F)cc4)c3OC[C@@H]2CO)sc1C [Example 6-14, (S)-4-(4,5-dimethylthiazol-2-yl)-3-hydroxymethyl-N-(4-trifluoromethylphenyl)-3,4-dihydro-2H-benzo[1,4]oxazine-8-carboxamide]
IC50: < 100 nM

COc1ccc(N2CCOc3c(C(=O)Nc4ccc(C(C)(C)C)cc4)cccc32)cc1 [Example 7-01, N-(4-tert-butylphenyl)-4-(4-methoxyphenyl)-3,4-dihydro-2H-benzo[1,4]oxazine-8-carboxamide]
IC50: < 100 nM

COc1ccc(N2CCOc3c(C(=O)Nc4ccc(OCC(C)C)cc4)cccc32)cc1 [Example 7-02, N-(4-isobutyloxyphenyl)-4-(4-methoxyphenyl)-3,4-dihydro-2H-benzo[1,4]oxazine-8-carboxamide]
IC50: < 100 nM

COc1ccc(N2CCOc3c(C(=O)Nc4ccc(Cl)cc4)cccc32)cc1 [Example 7-03, N-(4-chlorophenyl)-4-(4-methoxyphenyl)-3,4-dihydro-2H-benzo[1,4]oxazine-8-carboxamide]
IC50: < 100 nM

O=C(Nc1ccc(OC(F)(F)F)cc1)c1cccc2c1OC[C@H](CO)N2c1ccccc1Cl [Example 7-04, (S)-4-(2-chlorophenyl)-3-hydroxymethyl-N-(4-trifluoromethoxyphenyl)-3,4-dihydro-2H-benzo[1,4]oxazine-8-carboxamide]
IC50: < 100 nM

O=C(Nc1ccc(C(F)(F)F)cc1)c1cccc2c1OC[C@H](CO)N2c1ccccc1Cl [Example 7-05]
IC50: < 100 nM

O=C(Nc1ccc(C(F)(F)F)c(F)c1)c1cccc2c1OC[C@H](CO)N2c1ccccc1Cl [Example 7-06]
IC50: < 100 nM

O=C(Nc1ccc(OC(F)(F)F)cc1)c1cccc2c1OC[C@H](CO)N2c1ccc(Cl)cc1 [Example 7-07]
IC50: < 100 nM

COc1ccc(N2c3cccc(C(=O)Nc4ccc(OC(F)(F)F)cc4)c3OC[C@@H]2CO)cc1 [Example 7-08]
IC50: < 100 nM

COc1ccc(N2c3cccc(C(=O)Nc4ccc(C(F)(F)F)cc4)c3OC[C@@H]2CO)cc1 [Example 7-09]
IC50: < 100 nM

O=C(Nc1ccc(C(F)(F)F)cc1)c1cccc2c1OC[C@H](CO)N2c1ccc(Cl)cc1 [Example 7-10]
IC50: < 100 nM

O=C(Nc1ccc(Cl)cc1)c1cccc2c1OC[C@H](CO)N2c1ccc(Cl)cc1 [Example 7-11]
IC50: < 100 nM
